Positions of bridges follow the written chain, without caps; N, C: chain ends. Non-standard residues stand in square brackets, D forms with d. Residues, ends and D or L forms follow the SMILES beside them. ξ: configuration not given here. *: point of attachment. Bta = N[C@@H](Cc1csc2ccccc12)C(=O)O; Hyp = O=C(O)[C@@H]1C[C@@H](O)CN1; Ile(3ξ) = CCC(C)[C@H](N)C(=O)O; NMeNle = CCCC[C@H](NC)C(=O)O; NMeS = CN[C@@H](CO)C(=O)O; NMeA = CN[C@@H](C)C(=O)O; Dap = NC[C@H](N)C(=O)O; Bn = c1ccc(C*)cc1; Sar = CNCC(=O)O
Columns and labels:
[1] = target: T1, LK35.2-hPD-L1 cells / PE-labeled PD-1-Ig (Homo sapiens, UniProt Q9NZQ7); test: LK35.2-hPD-L1 cell binding high-content screening assay; type: cell-based; settings: cell binding assay, cell line not given; cluster symbol; read-out: CBA IC50 cluster
T1 construct: expressed in transfected cells; host or cells: LK35.2 mouse B cell line
T1 sequence (Q9NZQ7 19-290): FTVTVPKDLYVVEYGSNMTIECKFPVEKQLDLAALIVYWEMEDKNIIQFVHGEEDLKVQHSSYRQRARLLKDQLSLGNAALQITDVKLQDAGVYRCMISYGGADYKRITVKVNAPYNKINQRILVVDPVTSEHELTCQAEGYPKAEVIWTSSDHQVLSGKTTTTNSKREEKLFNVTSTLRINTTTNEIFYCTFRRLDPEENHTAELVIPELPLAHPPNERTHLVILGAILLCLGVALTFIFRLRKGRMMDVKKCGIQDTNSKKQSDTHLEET
Summary of the method: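 Using overnight-cultured LK35.2-hPD-L1 mouse B cells, compound was co-incubated with phycoerythrin-tagged human PD-1-Ig (final 1 nM) at 37 °C for one hour. Unbound label was removed by triple dPBS washing prior to high-content image acquisition and analysis.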

[2] = target: T2, Human PD-L1/PD-1 (Homo sapiens, UniProt Q9NZQ7); test: HTRF PD-1-Ig/PD-L1-His binding assay (human PD-L1); settings: cluster symbol; read-out: HTRF IC50 cluster
T2 construct: made in house; host or cells: HEK293T
T2 sequence (Q9NZQ7 with tags, fused parts or gaps): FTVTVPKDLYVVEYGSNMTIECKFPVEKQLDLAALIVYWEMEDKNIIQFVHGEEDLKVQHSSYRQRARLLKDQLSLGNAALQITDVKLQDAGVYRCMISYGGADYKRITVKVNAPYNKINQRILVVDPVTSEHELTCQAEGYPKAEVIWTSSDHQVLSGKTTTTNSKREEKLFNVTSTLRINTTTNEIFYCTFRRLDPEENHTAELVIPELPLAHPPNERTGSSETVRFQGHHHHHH
Summary of the method: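 Interaction of Fc-tagged soluble PD-1 with His-tagged soluble PD-L1 is monitored by time-resolved FRET. Donor is europium cryptate anti-Ig (1 nM final) and acceptor is APC anti-His (20 nM final). Assay buffer is dPBS with 0.1% BSA and 0.05% Tween-20.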

Row | SMILES | IC50 [1] [nM] | IC50 [2] [nM]
1 | CCCC[C@H]1C(=O)N(C)[C@@H](CCCC)C(=O)N[C@@H](CCCNC(=N)N)C(=O)N[C@H](C(=O)NCC(N)=O)CSCC(=O)N[C@@H](Cc2ccccc2)C(=O)N(C)[C@@H](C)C(=O)N[C@@H](CC(N)=O)C(=O)N2CCC[C@H]2C(=O)N[C@@H](Cc2cnc[nH]2)C(=O)N[C@@H](CO)C(=O)N(C)CC(=O)N[C@@H](Cc2c[nH]c3ccccc23)C(=O)N[C@@H](CO)C(=O)N[C@@H](Cc2c[nH]c3ccccc23)C(=O)N1C [Example 6010] ({CH2CO}-F[NMeA]NPHS[Sar]WSW[NMeNle][NMeNle]RCG-NH2; thioether N-14) | > 74.3 | > 30.5
2 | CCCC[C@H]1C(=O)N(C)[C@@H](CCCC)C(=O)N[C@@H](CCCNC(=N)N)C(=O)N[C@H](C(=O)NCC(N)=O)CSCC(=O)N[C@@H](Cc2ccccc2)C(=O)N(C)[C@@H](C)C(=O)N[C@@H](CC(N)=O)C(=O)N2CCC[C@H]2C(=O)N[C@@H](Cc2cnc[nH]2)C(=O)N[C@@H](C(C)CC)C(=O)N(C)CC(=O)N[C@@H](Cc2c[nH]c3ccccc23)C(=O)N[C@@H](CO)C(=O)N[C@@H](Cc2c[nH]c3ccccc23)C(=O)N1C (stereo partly drawn) [Example 6011] ({CH2CO}-F[NMeA]NPH[Ile(3ξ)][Sar]WSW[NMeNle][NMeNle]RCG-NH2; thioether N-14) | 4.78 to 72.9 | 6.76 to 30.3
3 | CC(C)C[C@@H]1NC(=O)[C@H](Cc2cnc[nH]2)NC(=O)[C@@H]2CCCN2C(=O)[C@H](CC(N)=O)NC(=O)[C@H](C)N(C)C(=O)[C@H](Cc2ccccc2)NC(=O)CSC[C@@H](C(=O)NCC(N)=O)NC(=O)[C@H](CCCNC(=N)N)NC(=O)[C@H](C)N(C)C(=O)[C@H](COCc2ccccc2)N(C)C(=O)[C@H](Cc2c[nH]c3ccccc23)NC(=O)[C@H](CO)NC(=O)[C@H](Cc2c[nH]c3ccccc23)NC(=O)CN(C)C1=O [Example 6012] ({CH2CO}-F[NMeA]NPHL[Sar]WSW[NMeS](Bn)[NMeA]RCG-NH2; thioether N-14) | 4.78 to 72.9 | 6.76 to 30.3
4 | CCCC[C@H]1C(=O)N[C@@H](CCCNC(=N)N)C(=O)N[C@H](C(=O)NCC(N)=O)CSCC(=O)N[C@@H](Cc2ccccc2)C(=O)N(C)[C@@H](C)C(=O)N[C@@H](CC(N)=O)C(=O)N2CCC[C@H]2C(=O)N[C@@H](Cc2cnc[nH]2)C(=O)N[C@@H](CC(C)C)C(=O)N(C)CC(=O)N[C@@H](Cc2c[nH]c3ccccc23)C(=O)N[C@@H](CO)C(=O)N[C@@H](Cc2c[nH]c3ccccc23)C(=O)N(C)[C@@H](COCc2ccccc2)C(=O)N1C [Example 6013] ({CH2CO}-F[NMeA]NPHL[Sar]WSW[NMeS](Bn)[NMeNle]RCG-NH2; thioether N-14) | 4.78 to 72.9 | 6.76 to 30.3
5 | CCCC[C@H]1C(=O)N(C)[C@@H](CCCC)C(=O)N[C@@H](CCCNC(=N)N)C(=O)N[C@H](C(=O)NCC(N)=O)CSCC(=O)N[C@@H](Cc2ccccc2)C(=O)N(C)[C@@H](C)C(=O)N[C@@H](CC(N)=O)C(=O)N2CCC[C@H]2C(=O)N[C@@H](Cc2cnc[nH]2)C(=O)N[C@@H](Cc2ccc(O)cc2)C(=O)N(C)CC(=O)N[C@@H](Cc2c[nH]c3ccccc23)C(=O)N[C@@H](CO)C(=O)N[C@@H](Cc2c[nH]c3ccccc23)C(=O)N1C [Example 6014] ({CH2CO}-F[NMeA]NPHY[Sar]WSW[NMeNle][NMeNle]RCG-NH2; thioether N-14) | 4.78 to 72.9 | 6.76 to 30.3
6 | CC(C)C[C@@H]1NC(=O)[C@H](Cc2cnc[nH]2)NC(=O)[C@@H]2CCCN2C(=O)[C@H](CC(N)=O)NC(=O)[C@H](C)N(C)C(=O)[C@H](Cc2ccccc2)NC(=O)CSC[C@@H](C(=O)NCC(N)=O)NC(=O)[C@H](CCCNC(=N)N)NC(=O)[C@H](COCc2ccccc2)N(C)C(=O)[C@H](C)N(C)C(=O)[C@H](Cc2c[nH]c3ccccc23)NC(=O)[C@H](CO)NC(=O)[C@H](Cc2c[nH]c3ccccc23)NC(=O)CN(C)C1=O [Example 6015] ({CH2CO}-F[NMeA]NPHL[Sar]WSW[NMeA][NMeS](Bn)RCG-NH2; thioether N-14) | 4.78 to 72.9 | > 30.5
7 | CCCC[C@H]1C(=O)N(C)[C@@H](COCc2ccccc2)C(=O)N[C@@H](CCCNC(=N)N)C(=O)N[C@H](C(=O)NCC(N)=O)CSCC(=O)N[C@@H](Cc2ccccc2)C(=O)N(C)[C@@H](C)C(=O)N[C@@H](CC(N)=O)C(=O)N2CCC[C@H]2C(=O)N[C@@H](Cc2cnc[nH]2)C(=O)N[C@@H](CC(C)C)C(=O)N(C)CC(=O)N[C@@H](Cc2c[nH]c3ccccc23)C(=O)N[C@@H](CO)C(=O)N[C@@H](Cc2c[nH]c3ccccc23)C(=O)N1C [Example 6016] ({CH2CO}-F[NMeA]NPHL[Sar]WSW[NMeNle][NMeS](Bn)RCG-NH2; thioether N-14) | 4.78 to 72.9 | 6.76 to 30.3
8 | CCCC[C@H]1C(=O)N(C)[C@@H](CCCC)C(=O)N[C@@H](CCCNC(=N)N)C(=O)N[C@H](C(=O)NCC(=O)NCC(N)=O)CSCC(=O)N[C@@H](Cc2ccc(O)cc2)C(=O)N(C)[C@@H](C)C(=O)N[C@@H](CC(N)=O)C(=O)N2CCC[C@H]2C(=O)N[C@@H](Cc2cnc[nH]2)C(=O)N[C@@H](CC(C)C)C(=O)N2C[C@H](O)C[C@H]2C(=O)N[C@@H](Cc2c[nH]c3ccccc23)C(=O)N[C@@H](CO)C(=O)N[C@@H](Cc2c[nH]c3ccccc23)C(=O)N1C [Example 6017] ({CH2CO}-Y[NMeA]NPHL[Hyp]WSW[NMeNle][NMeNle]RCGG-NH2; thioether N-14) | 0.158 to 4.71 | 0.385 to 6.74
9 | CCCC[C@H]1C(=O)N(C)[C@@H](CCCC)C(=O)N[C@@H](CCCNC(=N)N)C(=O)N[C@H](C(=O)NCC(=O)NCC(N)=O)CSCC(=O)N[C@@H](Cc2ccc(O)cc2)C(=O)N(C)[C@@H](C)C(=O)N[C@@H](CC(N)=O)C(=O)N2CCC[C@H]2C(=O)N[C@@H](Cc2cnc[nH]2)C(=O)N[C@@H](CC(C)C)C(=O)N2CCC[C@H]2C(=O)N[C@@H](Cc2c[nH]c3ccccc23)C(=O)N[C@@H](CO)C(=O)N[C@@H](Cc2c[nH]c3ccccc23)C(=O)N1C [Example 6018] ({CH2CO}-Y[NMeA]NPHLPWSW[NMeNle][NMeNle]RCGG-NH2; thioether N-14) | 0.158 to 4.71 | 0.385 to 6.74
10 | CCCC[C@H]1C(=O)N(C)[C@@H](CCCC)C(=O)N[C@@H](CCCNC(=N)N)C(=O)N[C@H](C(=O)NCC(=O)N[C@@H](C)C(N)=O)CSCC(=O)N[C@@H](Cc2ccc(O)cc2)C(=O)N(C)[C@@H](C)C(=O)N[C@@H](CC(N)=O)C(=O)N2CCC[C@H]2C(=O)N[C@@H](Cc2cnc[nH]2)C(=O)N[C@@H](CC(C)C)C(=O)N2C[C@H](O)C[C@H]2C(=O)N[C@@H](Cc2c[nH]c3ccccc23)C(=O)N[C@@H](CO)C(=O)N[C@@H](Cc2c[nH]c3ccccc23)C(=O)N1C [Example 6019] ({CH2CO}-Y[NMeA]NPHL[Hyp]WSW[NMeNle][NMeNle]RCGA-NH2; thioether N-14) | 0.158 to 4.71 | 0.385 to 6.74
11 | CCCC[C@H]1C(=O)N(C)[C@@H](CCCC)C(=O)N[C@@H](CCCNC(=N)N)C(=O)N[C@H](C(=O)NCC(=O)NCC(=O)NCC(N)=O)CSCC(=O)N[C@@H](Cc2ccc(O)cc2)C(=O)N(C)[C@@H](C)C(=O)N[C@@H](CC(N)=O)C(=O)N2CCC[C@H]2C(=O)N[C@@H](Cc2cnc[nH]2)C(=O)N[C@@H](CC(C)C)C(=O)N2CCC[C@H]2C(=O)N[C@@H](Cc2c[nH]c3ccccc23)C(=O)N[C@@H](CO)C(=O)N[C@@H](Cc2c[nH]c3ccccc23)C(=O)N1C [Example 6020] ({CH2CO}-Y[NMeA]NPHLPWSW[NMeNle][NMeNle]RCGGG-NH2; thioether N-14) | 0.158 to 4.71 | 0.385 to 6.74
12 | CCCC[C@H]1C(=O)N(C)[C@@H](CCCC)C(=O)N[C@@H](CCCNC(=N)N)C(=O)N[C@H](C(=O)NCC(N)=O)CSCC(=O)N[C@@H](Cc2ccc(O)cc2)C(=O)N(C)[C@@H](C)C(=O)N[C@@H](CC(N)=O)C(=O)N2CCC[C@H]2C(=O)N[C@@H](CN)C(=O)N[C@@H](CCC(N)=O)C(=O)N2CCC[C@H]2C(=O)N[C@@H](Cc2c[nH]c3ccccc23)C(=O)N[C@@H](CO)C(=O)N[C@@H](Cc2c[nH]c3ccccc23)C(=O)N1C [Example 6021] ({CH2CO}-Y[NMeA]NP[Dap]QPWSW[NMeNle][NMeNle]RCG-NH2; thioether N-14) | 0.158 to 4.71 | 0.385 to 6.74
13 | CCCC[C@H]1C(=O)N(C)[C@@H](CCCC)C(=O)N[C@@H](CCCNC(=N)N)C(=O)N[C@H](C(=O)NCC(N)=O)CSCC(=O)N[C@@H](Cc2ccc(O)cc2)C(=O)N(C)[C@@H](C)C(=O)N[C@@H](CC(N)=O)C(=O)N2CCC[C@H]2C(=O)N[C@@H](Cc2cnc[nH]2)C(=O)N[C@@H](CC(C)C)C(=O)N2C[C@H](C#N)C[C@H]2C(=O)N[C@@H](Cc2c[nH]c3ccccc23)C(=O)N[C@@H](CO)C(=O)N[C@@H](Cc2c[nH]c3ccccc23)C(=O)N1C [Example 6022] | 0.158 to 4.71 | 0.385 to 6.74
14 | CCCC[C@H]1C(=O)N(C)[C@@H](CCCC)C(=O)N[C@@H](CCCNC(=N)N)C(=O)N[C@H](C(=O)NCC(N)=O)CSCC(=O)N[C@@H](Cc2ccc(O)cc2)C(=O)N(C)[C@@H](C)C(=O)N[C@@H](CC(N)=O)C(=O)N2CCC[C@H]2C(=O)N[C@@H](CN)C(=O)N[C@@H](CCC(N)=O)C(=O)N2C[C@H](O)C[C@H]2C(=O)N[C@@H](Cc2c[nH]c3ccccc23)C(=O)N[C@@H](CO)C(=O)N[C@@H](Cc2csc3ccccc23)C(=O)N1C [Example 6023] ({CH2CO}-Y[NMeA]NP[Dap]Q[Hyp]WS[Bta][NMeNle][NMeNle]RCG-NH2; thioether N-14) | 0.158 to 4.71 | 6.76 to 30.3
15 | CCCC[C@H]1C(=O)N(C)[C@@H](CCCC)C(=O)N[C@@H](C)C(=O)N[C@H](C(=O)NCC(N)=O)CSCC(=O)N[C@@H](Cc2ccc(O)cc2)C(=O)N(C)[C@@H](C)C(=O)N[C@@H](CC(=O)O)C(=O)N2CCC[C@H]2C(=O)N[C@@H](Cc2cnc[nH]2)C(=O)N[C@@H](CCC(N)=O)C(=O)N2CCC[C@H]2C(=O)N[C@@H](Cc2c[nH]c3ccccc23)C(=O)N[C@@H](CO)C(=O)N[C@@H](Cc2c[nH]c3ccccc23)C(=O)N1C [Example 6024] ({CH2CO}-Y[NMeA]DPHQPWSW[NMeNle][NMeNle]ACG-NH2; thioether N-14) | 0.158 to 4.71 | 0.385 to 6.74

Source: patent US9850283B2, “Macrocyclic inhibitors of the PD-1/PD-L1 and CD80(B7-1)/PD-L1 protein/protein interactions” (BRISTOL-MYERS SQUIBB COMPANY, priority 2013, dated 2017)
